Reference: patent US5767291A, “Phenyl heterocycles as cox-2 inhibitors” (Merck Frosst Canada, Inc., priority 1996, dated 1998)

Assays:
cyclooxygenase-1 (COX-1) = target: T1, cyclooxygenase-1 (COX-1) (Homo sapiens, UniProt P23219); assay: Microsomal cyclooxygenase assay, COX-1 (PGE2 synthesis, microsomes of human U-937 cells); type: biochemical; conditions: read-out: Microsomes COX-1 % inhib.; for inhibition at 0.01 µM: 10 nM; for inhibition at 0.1 µM: 100 nM
T1 construct: human U-937 cells (which specifically express cyclooxygenase-1); endogenous in cells; host or cells: human U-937 cells (whole cells, and microsomes prepared from them)
T1 sequence (P23219 24-599): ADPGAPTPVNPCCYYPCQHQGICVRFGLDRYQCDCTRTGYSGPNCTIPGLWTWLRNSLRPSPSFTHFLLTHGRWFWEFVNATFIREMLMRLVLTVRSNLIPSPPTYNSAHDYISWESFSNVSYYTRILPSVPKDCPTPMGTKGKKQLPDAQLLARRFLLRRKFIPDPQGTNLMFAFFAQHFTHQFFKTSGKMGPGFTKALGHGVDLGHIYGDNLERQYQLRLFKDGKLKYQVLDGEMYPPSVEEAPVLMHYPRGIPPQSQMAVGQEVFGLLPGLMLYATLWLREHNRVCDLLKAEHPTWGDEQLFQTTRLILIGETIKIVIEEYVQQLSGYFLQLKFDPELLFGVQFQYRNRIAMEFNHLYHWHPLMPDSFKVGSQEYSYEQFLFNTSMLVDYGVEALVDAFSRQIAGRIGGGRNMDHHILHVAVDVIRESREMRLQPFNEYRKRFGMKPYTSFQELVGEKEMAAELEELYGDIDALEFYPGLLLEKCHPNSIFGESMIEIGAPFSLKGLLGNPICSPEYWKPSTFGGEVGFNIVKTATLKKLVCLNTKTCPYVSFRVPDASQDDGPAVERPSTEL
Procedure: (§1) Compounds were tested as inhibitors of cyclooxygenase activity in whole cell and microsomal cyclooxygenase assays. Both of these assays measured prostaglandin E2 (PGE2) synthesis in response to arachidonic acid, using a radioimmunoassay. Cells used for whole cell assays, and from which microsomes were prepared for microsomal assays, were human osteosarcoma 143 cells (which specifically express cyclooxygenase-2) and human U-937 cells (which specifically express cyclooxygenase-1). In these assays, 100% activity is defined as the difference between prostaglandin E2 synthesis in the absence and presence of arachidonate addition.

cyclooxygenase-2 (COX-2) [1] = target: T2, cyclooxygenase-2 (COX-2) (Homo sapiens, UniProt P35354); assay: Microsomal cyclooxygenase assay, COX-2 (PGE2 synthesis, microsomes of human osteosarcoma 143 cells); type: biochemical; conditions: read-out: Microsomes COX-2 % inhib.; for inhibition at 0.01 µM: 10 nM; for inhibition at 0.1 µM: 100 nM
T2 construct: human osteosarcoma 143 cells (which specifically express cyclooxygenase-2); endogenous in cells; host or cells: human osteosarcoma 143 cells (whole cells, and microsomes prepared from them)
T2 sequence (P35354 18-604): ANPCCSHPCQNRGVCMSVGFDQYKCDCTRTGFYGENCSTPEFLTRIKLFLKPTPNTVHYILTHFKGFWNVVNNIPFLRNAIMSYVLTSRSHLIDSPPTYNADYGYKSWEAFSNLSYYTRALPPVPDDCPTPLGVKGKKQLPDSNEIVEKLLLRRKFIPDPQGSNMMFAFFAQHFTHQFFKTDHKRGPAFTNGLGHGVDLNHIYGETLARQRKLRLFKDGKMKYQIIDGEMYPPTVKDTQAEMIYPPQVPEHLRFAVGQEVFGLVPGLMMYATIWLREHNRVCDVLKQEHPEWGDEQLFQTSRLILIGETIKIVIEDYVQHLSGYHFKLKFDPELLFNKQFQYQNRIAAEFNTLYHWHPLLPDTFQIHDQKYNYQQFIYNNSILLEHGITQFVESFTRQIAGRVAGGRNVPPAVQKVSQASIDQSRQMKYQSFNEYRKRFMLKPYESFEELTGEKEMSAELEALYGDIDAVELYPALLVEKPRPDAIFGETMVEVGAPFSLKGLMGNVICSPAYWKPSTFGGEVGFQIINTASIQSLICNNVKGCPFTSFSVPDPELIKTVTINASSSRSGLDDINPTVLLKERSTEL
Procedure: as §1

cyclooxygenase-2 (COX-2) [2] = target: T2, cyclooxygenase-2 (COX-2); assay: Whole cell cyclooxygenase assay, COX-2 (PGE2 synthesis in response to arachidonic acid, radioimmunoassay), human osteosarcoma 143 cells; type: cell-based; conditions: read-out: Whole Cells COX-2 % inhib.; for inhibition at 0.01 µM: 10 nM; for inhibition at 0.04 µM: 40 nM; for inhibition at 0.16 µM: 160 nM; for inhibition at 0.08 µM: 80 nM
Procedure: as §1

What does the source list for CC(C)c1cc(-c2ccc(S(N)(=O)=O)cc2)c(-c2ccc(F)cc2)s1 [Example 3, 3-(4-(Aminosulfonyl)phenyl)-2-(4-fluorophenyl)-5-(2-propyl)thiophene]?
inhibition at 0.01 µM (cyclooxygenase-1 (COX-1)): 19%; inhibition at 0.1 µM (cyclooxygenase-1 (COX-1)): 12%; inhibition at 0.01 µM (cyclooxygenase-2 (COX-2) [1]): 33%; inhibition at 0.1 µM (cyclooxygenase-2 (COX-2) [1]): 76%; inhibition at 0.01 µM (cyclooxygenase-2 (COX-2) [2]): 42%; inhibition at 0.1 µM (cyclooxygenase-2 (COX-2) [2]; 100 nM): 100%

What does the source list for NS(=O)(=O)c1ccc(-c2ccsc2C2CCCCC2)cc1 [Example 4, 3-(4-(Aminosulfonyl)phenyl)-2-cyclohexylthiophene]?
inhibition at 0.01 µM (cyclooxygenase-1 (COX-1)): 2%; inhibition at 0.01 µM (cyclooxygenase-2 (COX-2) [1]): 47%

Which inhibition at 0.1 µM (cyclooxygenase-1 (COX-1)) does the source give for Cc1nc(-c2ccc(F)cc2)c(-c2ccc(S(C)(=O)=O)cc2)s1 [Example 6, 4-(4-Fluorophenyl)-2-methyl-5-(4-(methylsulfonyl)phenyl)thiazole] here?
The inhibition at 0.1 µM was 16%.

And the inhibition at 0.1 µM (cyclooxygenase-2 (COX-2) [1])?
The inhibition at 0.1 µM was 19%.

And the inhibition at 0.1 µM (cyclooxygenase-2 (COX-2) [2]; 100 nM)?
The inhibition at 0.1 µM was 78%.

For CS(=O)(=O)c1ccc(C2=C(c3ccc(F)cc3)C(=O)OC2)cc1 [Example 9, 3-(4-Fluorophenyl)-4-(4-(methylsulfonyl)phenyl)-2-(5H)-furanone], which inhibition at 0.1 µM (cyclooxygenase-2 (COX-2) [1]) is on record?
The inhibition at 0.1 µM was 37%.

And the inhibition at 0.1 µM (cyclooxygenase-2 (COX-2) [2])?
The inhibition at 0.1 µM was 83%.

How did the inhibition at 0.1 µM (cyclooxygenase-1 (COX-1)) turn out when NS(=O)(=O)c1ccc(C2=C(c3ccc(F)cc3)C(=O)OC2)cc1 [Example 10, 3-(4-Fluorophenyl)-4-(4-(aminosulfonyl)phenyl)-2-(2H)-furanone] was run?
Its inhibition at 0.1 µM is 12%.

And the inhibition at 0.1 µM (cyclooxygenase-2 (COX-2) [1])?
The inhibition at 0.1 µM was 71%.

What about the inhibition at 0.1 µM (cyclooxygenase-2 (COX-2) [2]; 100 nM) of the same molecule?
Its inhibition at 0.1 µM is 95%.

How did the inhibition at 0.01 µM (cyclooxygenase-2 (COX-2) [2]) turn out when CS(=O)(=O)c1ccc(C2=C(c3ccc(Cl)c(F)c3)C(=O)OC2)cc1 [Example 46, 3-(4-Chloro-3-fluorophenyl)-4-(4-(methylsulfonyl)phenyl)-2-(5H)-furanone] was run?
The inhibition at 0.01 µM was 76%.

What about the inhibition at 0.04 µM (cyclooxygenase-2 (COX-2) [2]) of the same molecule?
Its inhibition at 0.04 µM is 94%.

And the inhibition at 0.16 µM (cyclooxygenase-2 (COX-2) [2])?
The inhibition at 0.16 µM was 97%.

For CS(=O)(=O)c1ccc(C2=C(c3ccc(Br)c(F)c3)C(=O)OC2)cc1 [Example 47, 3-(4-Bromo-3-fluorophenyl)-4-(4-(methylsulfonyl)phenyl)-2-(5H)-furanone], which inhibition at 0.01 µM (cyclooxygenase-2 (COX-2) [2]) is on record?
Its inhibition at 0.01 µM is 61%.

And the inhibition at 0.04 µM (cyclooxygenase-2 (COX-2) [2])?
The inhibition at 0.04 µM was 74%.

What about the inhibition at 0.16 µM (cyclooxygenase-2 (COX-2) [2]) of the same molecule?
Its inhibition at 0.16 µM is 101%.

How did the inhibition at 0.01 µM (cyclooxygenase-2 (COX-2) [2]) turn out when CS(=O)(=O)c1ccc(C2=C(c3ccc(Br)cc3Cl)C(=O)OC2)cc1 [Example 48, 3-(4-Bromo-2-chlorophenyl)-4-(4-(methylsulfonyl)phenyl)-2-(5H)-furanone] was run?
Its inhibition at 0.01 µM is 7%.

What about the inhibition at 0.16 µM (cyclooxygenase-2 (COX-2) [2]) of the same molecule?
The inhibition at 0.16 µM was 47%.

What does the source list for CS(=O)(=O)c1ccc(C2=C(c3ccc4ccccc4c3)C(=O)OC2)cc1 [Example 49, 3-(2-Naphthyl)-4-(4-(methylsulfonyl)phenyl)-2-(5H)-furanone]?
inhibition at 0.01 µM (cyclooxygenase-2 (COX-2) [2]): 53%; inhibition at 0.04 µM (cyclooxygenase-2 (COX-2) [2]): 91%; inhibition at 0.08 µM (cyclooxygenase-2 (COX-2) [2]): 99%

For CS(=O)(=O)c1ccc(C2=C(c3ccc4cccnc4c3)C(=O)OC2)cc1 [Example 50, 3-(7-Quinolinyl)-4-(4-(methylsulfonyl)phenyl)-2-(5H)-furanone], which inhibition at 0.08 µM (cyclooxygenase-2 (COX-2) [2]) is on record?
Its inhibition at 0.08 µM is 42%.

Which results are given for NS(=O)(=O)c1ccc(C2=C(c3ccc(Cl)c(Cl)c3)C(=O)OC2)cc1 [Example 51, 3-(3 4-Dichlorophenyl)-4-(4-(aminosulfonyl)phenyl)-2-(2H)-furanone]?
inhibition at 0.005 µM (cyclooxygenase-2 (COX-2) [2]; 5 nM): 49%; inhibition at 0.02 µM (cyclooxygenase-2 (COX-2) [2]; 20 nM): 95%; inhibition at 0.04 µM (cyclooxygenase-2 (COX-2) [2]): 102%

Which inhibition at 0.01 µM (cyclooxygenase-2 (COX-2) [2]) does the source give for NS(=O)(=O)c1ccc(C2=C(c3ccc(F)c(F)c3)C(=O)OC2)cc1 [Example 52, 3-(3,4-Difluorophenyl)-4-(4-(aminosulfonyl)phenyl)-2-(2H)-furanone] here?
Its inhibition at 0.01 µM is 50%.

And the inhibition at 0.04 µM (cyclooxygenase-2 (COX-2) [2])?
Its inhibition at 0.04 µM is 82%.

And the inhibition at 0.16 µM (cyclooxygenase-2 (COX-2) [2])?
Its inhibition at 0.16 µM is 102%.

What does the source list for COc1ccc(C2=C(c3ccc(S(N)(=O)=O)cc3)COC2=O)cc1Cl [Example 53, 3-(3-Chloro-4-methoxyphenyl)-4-(4-(aminosulfonyl)phenyl)-2-(2H)-furanone]?
inhibition at 0.01 µM (cyclooxygenase-2 (COX-2) [2]): 54%; inhibition at 0.04 µM (cyclooxygenase-2 (COX-2) [2]): 96%; inhibition at 0.16 µM (cyclooxygenase-2 (COX-2) [2]): 102%

How did the inhibition at 0.01 µM (cyclooxygenase-2 (COX-2) [2]) turn out when COc1ccc(C2=C(c3ccc(S(N)(=O)=O)cc3)COC2=O)cc1Br [Example 54, 3-(3-Bromo-4-methoxyphenyl)-4-(4-(aminosulfonyl)phenyl)-2-(2H)-furanone] was run?
Its inhibition at 0.01 µM is 81%.

What about the inhibition at 0.08 µM (cyclooxygenase-2 (COX-2) [2]) of the same molecule?
The inhibition at 0.08 µM was 91%.

What about the inhibition at 0.16 µM (cyclooxygenase-2 (COX-2) [2]) of the same molecule?
The inhibition at 0.16 µM was 99%.
